Data on 40 compounds can be found in BindingDB's records for doi:10.7270/Q2M32T6M (Vanderbilt Screening Center for GPCRs, Ion Channels and …, 2009).

The target of one assay is T1, Solute carrier family 12 member 5 (Homo sapiens, UniProt Q9H2X9).
T1 sequence (Q9H2X9 whole entry): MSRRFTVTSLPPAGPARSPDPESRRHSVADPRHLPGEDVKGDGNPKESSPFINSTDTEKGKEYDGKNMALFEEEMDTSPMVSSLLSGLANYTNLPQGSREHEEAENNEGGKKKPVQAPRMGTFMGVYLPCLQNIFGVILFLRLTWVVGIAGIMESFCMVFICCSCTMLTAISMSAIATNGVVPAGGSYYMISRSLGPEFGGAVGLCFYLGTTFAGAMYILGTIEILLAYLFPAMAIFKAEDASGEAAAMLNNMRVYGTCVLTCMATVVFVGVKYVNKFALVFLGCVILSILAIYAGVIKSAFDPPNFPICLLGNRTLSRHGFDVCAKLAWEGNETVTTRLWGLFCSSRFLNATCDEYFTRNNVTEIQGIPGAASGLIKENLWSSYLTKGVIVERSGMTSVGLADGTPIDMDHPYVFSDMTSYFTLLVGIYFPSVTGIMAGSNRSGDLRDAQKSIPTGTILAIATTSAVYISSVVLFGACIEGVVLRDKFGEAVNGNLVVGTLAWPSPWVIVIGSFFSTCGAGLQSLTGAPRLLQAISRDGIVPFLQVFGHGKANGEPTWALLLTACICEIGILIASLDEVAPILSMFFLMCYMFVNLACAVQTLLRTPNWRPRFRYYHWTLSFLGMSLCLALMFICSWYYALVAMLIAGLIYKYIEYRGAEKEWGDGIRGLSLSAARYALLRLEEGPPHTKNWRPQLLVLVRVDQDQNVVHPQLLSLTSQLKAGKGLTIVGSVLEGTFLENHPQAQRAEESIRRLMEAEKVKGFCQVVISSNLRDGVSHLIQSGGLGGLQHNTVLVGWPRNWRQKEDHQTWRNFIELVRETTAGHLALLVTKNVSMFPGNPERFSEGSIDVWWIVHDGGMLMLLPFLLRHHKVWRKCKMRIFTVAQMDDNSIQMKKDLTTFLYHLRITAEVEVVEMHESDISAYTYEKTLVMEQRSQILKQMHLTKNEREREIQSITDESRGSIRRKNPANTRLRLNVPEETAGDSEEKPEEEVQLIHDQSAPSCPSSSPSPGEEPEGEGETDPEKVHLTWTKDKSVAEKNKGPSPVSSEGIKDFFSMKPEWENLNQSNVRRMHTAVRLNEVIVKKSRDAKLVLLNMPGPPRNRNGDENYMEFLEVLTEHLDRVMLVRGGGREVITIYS
Kind of assay: concentration-response of KCC2 transport modulators – cell-based, HEK293 KCC2, FluoZin-2 fluorescence, dose response (AID 1736).
Conditions: not given
Broadly, the EC50 is the concentration that produces a half-maximal response. A low value points to greater potency. In turn, `CC(C)(CN=C(S)NCCc1ccccc1)CN=C(S)NCCc1ccccc1` [1-[2,2-dimethyl-3-(2-phenylethylcarbamothioylamino)propyl]-3-(2-phenylethyl)thiourea] displayed a half-maximal effective concentration (EC50) of 16.7 µM.

In the case of `CCOC(=O)c1cc2c(ccn2C)n1CC(=O)N1CCC(Cc2ccccc2)CC1` [1-[2-(4-Benzyl-piperidin-1-yl)-2-oxo-ethyl]-4-methyl-1,4-dihydro-pyrrolo[3,2-b]pyrrole-2-carboxylic acid ethyl ester], the half-maximal effective concentration (EC50) amounted to 10.8 µM.

`Cc1ccc2oc(-c3ccc(C)c(NC(=S)NC(=O)c4cccs4)c3)nc2c1` [1-[2-Methyl-5-(5-methyl-benzooxazol-2-yl)-phenyl]-3-(thiophene-2-carbonyl)-thiourea] gave a half-maximal effective concentration (EC50) of 0.761 µM.

`S=C(NCCc1ccccc1)NN=Cc1cccc(Cl)c1Cl` [1-[(2,3-dichlorobenzylidene)amino]-3-phenethyl-thiourea] gave an EC50 of 22.7 µM.

With `Fc1cccc(F)c1C=NNC(=S)Nc1cccnc1` [1-[(2,6-difluorobenzylidene)amino]-3-(3-pyridyl)thiourea], the EC50 was 9.24 µM.

`NC(=S)NN=C1C(=O)N(Cc2ccc(F)cc2)c2ccccc21` [1-[(Z)-[1-[(4-fluorophenyl)methyl]-2-oxidanylidene-indol-3-ylidene]amino]thiourea] yielded an EC50 of 7.98 µM.

Turning to `Cc1ccc(-c2noc(CN3CCN(Cc4ccccc4)CC3)n2)cc1` [1-benzyl-4-{[3-(4-methylphenyl)-1,2,4-oxadiazol-5-yl]methyl}piperazine], the 50% effective concentration (EC50) is 7.58 µM.

As for `O=C(CSc1ccc(-c2ccccc2)nn1)c1ccccc1` [1-phenyl-2-(6-phenylpyridazin-3-yl)sulfanyl-ethanone], a half-maximal response (EC50) required 1.06 µM.

For the compound `CC1CCN(C(=O)c2ccc(SCc3ccccc3F)c([N+](=O)[O-])c2)CC1` [1-{4-[(2-fluorobenzyl)thio]-3-nitrobenzoyl}-4-methylpiperidine], it took 42.6 µM to reach a half-maximal effect (EC50).

As to `O=C(c1ccc(S(=O)(=O)c2cccc(Cl)c2)c([N+](=O)[O-])c1)N1CCN(c2ccccn2)CC1` [1-{4-[(3-chlorophenyl)sulfonyl]-3-nitrobenzoyl}-4-pyridin-2-ylpiperazine], the EC50 was found to be 2.55 µM.

Compound `O=C(NC(=S)Nc1nc(-c2cccc([N+](=O)[O-])c2)cs1)c1cc(Cl)ccc1Cl` [2,5-bis(chloranyl)-N-[[4-(3-nitrophenyl)-1,3-thiazol-2-yl]carbamothioyl]benzamide] registered an EC50 of 10.8 µM.

As for `Cc1ccc(C)c(C(=O)NC(C)CCc2ccccc2)c1` (stereo not given) [2,5-dimethyl-N-(1-methyl-3-phenyl-propyl)benzamide], the concentration giving a half-maximal response (EC50) is 7.74 µM.

In turn, `CCn1nnnc1SCC(=O)Nc1nc(-c2cccs2)cs1` [2-(1-Ethyl-1H-tetrazol-5-ylsulfanyl)-N-(4-thiophen-2-yl-thiazol-2-yl)-acetamide] returned an EC50 of 3.74 µM.

Compound `Cn1c(CSc2nc3ccccc3s2)nc2ccccc21` [2-(1-Methyl-1H-benzoimidazol-2-ylmethylsulfanyl)-benzothiazole] registered an EC50 of 439 µM.

`C=CCNc1oc(Cc2cccc3ccccc23)nc1C#N` [2-(1-naphthalenylmethyl)-5-(prop-2-enylamino)-4-oxazolecarbonitrile] yielded a concentration giving a half-maximal response (EC50) of 4.49 µM.

In the case of `O=C(CN1C(=O)NC2(CCCC2)C1=O)Nc1nc(-c2ccc(F)cc2)cs1` [2-(2,4-diketo-1,3-diazaspiro[4.4]nonan-3-yl)-N-[4-(4-fluorophenyl)thiazol-2-yl]acetamide], the response was half-maximal at 0.156 µM (EC50).

On to `N#Cc1nc(-c2ccco2)oc1N1CCN(Cc2ccccc2)CC1` [2-(2-furanyl)-5-[4-(phenylmethyl)-1-piperazinyl]-4-oxazolecarbonitrile], for which a half-maximal effect (EC50) was put at 12 µM.

In turn, `O=C(COC(=O)c1cc([N+](=O)[O-])ccc1NCCO)c1ccccc1` [2-(2-hydroxyethylamino)-5-nitro-benzoic acid phenacyl ester] had a 50% effective concentration (EC50) of 31.1 µM.

For the compound `Cc1cc(C)c(C#N)c(N2CCN(Cc3ccccc3)CC2)n1` [2-(4-benzyl-1-piperazinyl)-4,6-dimethylnicotinonitrile], the half-maximal effective concentration (EC50) was found to be 8.18 µM.

In turn, `O=C(Cn1nc(-c2ccccc2)ccc1=O)NCc1ccc2c(c1)OCO2` [2-(6-keto-3-phenyl-pyridazin-1-yl)-N-piperonyl-acetamide] registered a 50% effective concentration (EC50) of 1.94 µM.

Turning to `O=C(Cn1cnc2c(nnn2-c2ccccc2)c1=O)NCCc1ccccc1` [2-(7-keto-3-phenyl-triazolo[4,5-d]pyrimidin-6-yl)-N-phenethyl-acetamide], a half-maximal effect (EC50) was put at 2.52 µM.

Regarding `O=C(COC(=O)c1cc([N+](=O)[O-])ccc1NCc1ccccc1)NC1CCCCC1` [2-(benzylamino)-5-nitro-benzoic acid [2-(cyclohexylamino)-2-keto-ethyl] ester], a half-maximal effect (EC50) was put at 0.481 µM.

`O=C(O)c1cc([N+](=O)[O-])ccc1NCc1ccccc1` [2-(benzylamino)-5-nitro-benzoic acid] came in with an EC50 of 1490 µM.

`O=[N+]([O-])c1ccc(CSc2nnc(SCc3ccccc3)s2)cc1` [2-(benzylthio)-5-[(4-nitrobenzyl)thio]-1,3,4-thiadiazole] came in with an EC50 of 2.06 µM.

`CCc1ccc(OCCNC(=O)c2ccccc2SCc2ccccc2)cc1` [2-(benzylthio)-N-[2-(4-ethylphenoxy)ethyl]benzamide] had an EC50 of 35.2 µM.

Take `COc1ccc(S(=O)(=O)N2CCC(C(=O)N3CCc4ccccc4C3)CC2)cc1C` [2-({1-[(4-methoxy-3-methylphenyl)sulfonyl]-4-piperidinyl}carbonyl)-1,2,3,4-tetrahydroisoquinoline]: the EC50 came out at 4.98 µM.

`Cn1nccc1C(=O)OCC(=O)Nc1nc(-c2ccccc2)cs1` [2-Methyl-2H-pyrazole-3-carboxylic acid (4-phenyl-thiazol-2-ylcarbamoyl)-methyl ester]: the concentration giving a half-maximal response (EC50) is 6.08 µM.

`O=C(CSc1nnnn1-c1ccc(Cl)cc1)N1CCc2ccccc2C1` [2-[1-(4-chlorophenyl)tetrazol-5-yl]sulfanyl-1-(3,4-dihydro-1H-isoquinolin-2-yl)ethanone] came in with an EC50 of 1.42 µM.

As for `O=C1Nc2ccc([N+](=O)[O-])cc2OC1CCN1CCN(Cc2ccccc2)CC1` (stereo not given) [2-[2-(4-benzylpiperazin-1-yl)ethyl]-7-nitro-4H-1,4-benzoxazin-3-one], the concentration giving a half-maximal response (EC50) came to 4.2 µM.

Take `O=C(CSc1ccccc1C(=O)NCc1ccccc1)NC1CCCCCCC1` [2-[2-(cyclooctylamino)-2-oxidanylidene-ethyl]sulfanyl-N-(phenylmethyl)benzamide]: the midpoint of the response, the EC50, lay at 1.65 µM.

Compound `NC(=O)COc1ccccc1/C=C1/SC(=O)N(CC(=O)N2CCc3ccccc3C2)C1=O` [2-[2-({3-[2-(3,4-dihydro-2(1H)-isoquinolinyl)-2-oxoethyl]-2,4-dioxo-1,3-thiazolidin-5-ylidene}methyl)phenoxy]acetamide] had an EC50 of 10800 µM.

For `CCc1ccc(Nc2nnc(SCC(=O)Nc3sccc3C(N)=O)s2)cc1` [2-[2-[[5-[(4-ethylphenyl)amino]-1,3,4-thiadiazol-2-yl]sulfanyl]ethanoylamino]thiophene-3-carboxamide], the EC50 was found to be 3.54 µM.

Still in this assay, the particulars now being: inactive by the depositor's call.
`O=C(COc1ccc2ccccc2c1Br)Nn1cnnc1` [2-(1-bromanylnaphthalen-2-yl)oxy-N-(1,2,4-triazol-4-yl)ethanamide] returned an EC50 of 459 µM.

`O=C(CSC1=NCCS1)Nc1nc(-c2ccccc2)cs1` [2-(4,5-dihydro-1,3-thiazol-2-ylsulfanyl)-N-(4-phenyl-1,3-thiazol-2-yl)acetamide] registered an EC50 of 1890 µM.

In turn, `COc1ccc(-c2nnc(-c3ccc(OCC(C)C)cc3)o2)cc1` [2-(4-Isobutoxy-phenyl)-5-(4-methoxy-phenyl)-[1,3,4]oxadiazole] returned a concentration for a half-maximal effect (EC50) of 0.00127 µM.

Compound `Cc1nc(N2CCN(Cc3ccccc3)CC2)nc2c1C(=O)CCC2` [2-(4-benzylpiperazin-1-yl)-4-methyl-7,8-dihydro-6H-quinazolin-5-one] showed an EC50 of 8.64 µM.

As to `Cc1ccc(N(CC(=O)NCCSc2ccccn2)S(=O)(=O)c2ccc(F)cc2)cc1` [2-(N-(4-fluorophenyl)sulfonyl-4-methyl-anilino)-N-[2-(2-pyridylthio)ethyl]acetamide], the EC50 is 2.87 µM.

In turn, `COn1c(SC2CCCCC2)nc2ccccc2c1=O` [2-(cyclohexylthio)-3-methoxy-4-quinazolinone] gave a half-maximal effective concentration (EC50) of 82.6 µM.

With `CCc1ccc(-c2nc(C[S+]([O-])CC(=O)NCc3cccnc3)c(C)o2)cc1` (stereo not given) [2-({[2-(4-ethylphenyl)-5-methyl-1,3-oxazol-4-yl]methyl}sulfinyl)-N-(pyridin-3-ylmethyl)acetamide], the EC50 was 38.3 µM.

In the case of `O=C(Cn1nc(-c2ccccc2F)ccc1=O)NCc1ccc2c(c1)OCO2` [2-[3-(2-fluorophenyl)-6-keto-pyridazin-1-yl]-N-piperonyl-acetamide], the response was half-maximal at 8.27 µM (EC50).
